Some test systems named below: OVCAR-8 ovarian; SF-539 CNS; OVCAR-5 ovarian; SF-295 CNS; MDA-MB-231 breast; IGROV1 ovarian; UO-31 renal; HS 578T breast; OVCAR-3 ovarian; SNB-75 CNS.
Holding throughout (test): NCI-60 cell line screen, 48 h

Consider 12 molecules from PubChem BioAssay (NCI).

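48-hour exposure; five concentrations; linearly interpolated endpoints. TGI: concentration producing complete growth inhibition.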

Consider `CSCCCNC(=O)c1csc(-c2csc(C(CNC(=O)OC(C)(C)C)CNC(=O)OC(C)(C)C)n2)n1`, for which the TGI in the experiment on OVCAR-8 ovarian, in the experiment with SF-539 CNS, in the experiment on OVCAR-5 ovarian, in the experiment with SF-295 CNS, with MDA-MB-231 breast and in the experiment on IGROV1 ovarian was more than 100 µM in each case. Besides, the TGI with UO-31 renal, with HS 578T breast, in the experiment with OVCAR-3 ovarian and in the experiment with SNB-75 CNS was more than 100 µM each time.

Consider `O=C(/C=C/c1ccc(O)c(O)c1)c1cc(O)cc(O)c1`, for which the TGI with OVCAR-8 ovarian came to 32.8 µM; with SF-539 CNS it was 20.7 µM; with OVCAR-5 ovarian it was 28.9 µM; with SF-295 CNS, 40.1 µM; with MDA-MB-231 breast it was 28.8 µM; in the experiment with IGROV1 ovarian, 27.5 µM. Moreover, the TGI was determined as 22.6 µM in the experiment with UO-31 renal, 70.5 µM with HS 578T breast, 26.4 µM in the experiment on OVCAR-3 ovarian and 34.5 µM in the experiment with SNB-75 CNS.

Consider `CCOC(=O)C1OC(C2(C)OC3(OC4(C=CC3O)OC(C(C)C(=O)C(C)C(O)C(C)CC(C)c3c(Cl)cc(C)c(O)c3C(=O)O)C(C)CC4C)C(C)C2OC)CC1O` (stereo not given), for which the TGI is 13.3 µM in the experiment on OVCAR-8 ovarian; 7.51 µM with SF-539 CNS; 21 µM in the experiment with OVCAR-5 ovarian; 3.89 µM in the experiment with SF-295 CNS; 2.96 µM in the experiment on MDA-MB-231 breast; 16.5 µM in the experiment with IGROV1 ovarian. In addition, the TGI in the experiment on UO-31 renal worked out at 3.95 µM; in the experiment on HS 578T breast, 11.7 µM; in the experiment with OVCAR-3 ovarian, 3.9 µM; in the experiment with SNB-75 CNS, 0.919 µM.

`C/C(=C/C(=O)Nn1c(Cc2ccccc2)n[nH]c1=O)C(=O)O`: the TGI in the experiment with OVCAR-8 ovarian, in the experiment on SF-539 CNS, in the experiment on OVCAR-5 ovarian, in the experiment with SF-295 CNS, in the experiment on MDA-MB-231 breast and in the experiment with IGROV1 ovarian was more than 100 µM throughout. The TGI in the experiment with UO-31 renal, in the experiment with HS 578T breast, with OVCAR-3 ovarian and in the experiment with SNB-75 CNS was more than 100 µM in each case.

As for `CCCCN1C(=O)c2c(-c3sccc3N)sc(-c3sccc3N)c2C1=O`, the TGI is more than 72.1 µM in the experiment on OVCAR-8 ovarian; 32.8 µM with SF-539 CNS; more than 78.9 µM in the experiment on OVCAR-5 ovarian; 58 µM in the experiment with SF-295 CNS; 97.3 µM in the experiment with MDA-MB-231 breast; more than 100 µM with IGROV1 ovarian. Also, the TGI with UO-31 renal is more than 51 µM; in the experiment on HS 578T breast, 83.6 µM; in the experiment on OVCAR-3 ovarian, 78.5 µM; with SNB-75 CNS it was 34.6 µM.

`Nc1nc(N)c2ncn(Cc3ccccc3CCl)c2n1`: the TGI with OVCAR-8 ovarian, in the experiment with SF-539 CNS, in the experiment on OVCAR-5 ovarian, in the experiment with SF-295 CNS, in the experiment with MDA-MB-231 breast and with IGROV1 ovarian was more than 100 µM in each case. Besides, the TGI in the experiment with UO-31 renal, in the experiment with HS 578T breast, with OVCAR-3 ovarian and in the experiment with SNB-75 CNS was more than 100 µM each time.

As to `COC(=O)C1CCC(=O)N1C(c1ccc(OC)cc1)c1ccc(OC)cc1` (stereo not given), the TGI in the experiment on OVCAR-8 ovarian, in the experiment on SF-539 CNS, in the experiment with OVCAR-5 ovarian, in the experiment on SF-295 CNS, in the experiment with MDA-MB-231 breast and in the experiment with IGROV1 ovarian was more than 100 µM in each case. The TGI with UO-31 renal, in the experiment on HS 578T breast, in the experiment with OVCAR-3 ovarian and in the experiment with SNB-75 CNS was more than 100 µM throughout.

In the case of `C#CC1(O)C(COP(=O)(O)OCC2OC(n3ccc(NCCCCCCCCCCCCCCCCCC)nc3=O)C(O)C2O)OC(n2ccc(N)nc2=O)C1O` (stereo not given), the TGI is 35.3 µM in the experiment with OVCAR-8 ovarian; 34.5 µM with SF-539 CNS; 60.5 µM in the experiment on OVCAR-5 ovarian; 18.6 µM in the experiment with SF-295 CNS; 34.4 µM in the experiment on MDA-MB-231 breast; 6.02 µM in the experiment on IGROV1 ovarian. Moreover, the TGI was 2.53 µM in the experiment with UO-31 renal, 45.2 µM in the experiment with HS 578T breast, 62.1 µM in the experiment with OVCAR-3 ovarian and 45.9 µM in the experiment on SNB-75 CNS.

With `Cc1ccc(OC2CC(n3cnc4ncnc(Cl)c43)OC2Oc2ccc(C)cc2)cc1` (stereo not given), the TGI in the experiment with OVCAR-8 ovarian came to 26.8 µM; with SF-539 CNS it was 31.5 µM; in the experiment with OVCAR-5 ovarian, 58.3 µM; in the experiment on SF-295 CNS, 56.7 µM; in the experiment with MDA-MB-231 breast, 50.2 µM; in the experiment with IGROV1 ovarian, 55 µM. Further, the TGI was 23.9 µM in the experiment with UO-31 renal, 76.9 µM in the experiment on HS 578T breast, 33.9 µM in the experiment with OVCAR-3 ovarian and 69.1 µM in the experiment with SNB-75 CNS.

For `CC(C)(C)c1cc(C2=NN(c3ccccc3)C(c3ccccc3)C2)cc(C(C)(C)C)c1O` (stereo not given), the TGI in the experiment with OVCAR-8 ovarian, with SF-539 CNS, in the experiment with OVCAR-5 ovarian, in the experiment on SF-295 CNS, in the experiment with MDA-MB-231 breast and in the experiment on IGROV1 ovarian was more than 100 µM in each case. The TGI in the experiment with UO-31 renal, in the experiment on HS 578T breast, in the experiment on OVCAR-3 ovarian and in the experiment on SNB-75 CNS was more than 100 µM each time.

Consider `c1ccc2c(c1)ncn2C1CCCCO1` (stereo not given), for which the TGI with OVCAR-8 ovarian, with SF-539 CNS, in the experiment on OVCAR-5 ovarian, with SF-295 CNS, in the experiment with MDA-MB-231 breast and with IGROV1 ovarian was more than 100 µM throughout. The TGI in the experiment with UO-31 renal, with HS 578T breast, in the experiment on OVCAR-3 ovarian and in the experiment with SNB-75 CNS was more than 100 µM throughout.

Regarding `CCCCCCCCCCCCOP(=O)(O)OCC(N)C(=O)O` (stereo not given), the TGI in the experiment with OVCAR-8 ovarian was more than 100 µM; with SF-539 CNS it was 51.6 µM; with OVCAR-5 ovarian, more than 100 µM; in the experiment on SF-295 CNS it was 41.7 µM; with MDA-MB-231 breast, 58 µM; in the experiment on IGROV1 ovarian, more than 100 µM. Besides, the TGI came out at 28.9 µM in the experiment on UO-31 renal, 33.3 µM in the experiment with HS 578T breast, 33.2 µM with OVCAR-3 ovarian and 51.9 µM in the experiment with SNB-75 CNS.
